We go through six compounds from patent US20200181117A1, “SUBSTITUTED 3-HETEROARYLOXY-1H-PYRAZOLES AND SALTS THEREOF AND THEIR USE AS HERBICIDAL ACTIVE SUBSTANCES” (BAYER CROPSCIENCE AKTIENGESELLSCHAFT, priority 2017, published 2020).

Common to all, as to format: in vivo
The subject of assay [1] is Avena fatua. Put plainly: Pre-emergence herbicidal action. Conditions: 1280 g/ha, scored visually after about 3 weeks vs untreated controls. An outline of the steps:
(§1)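 Visual percentage damage relative to untreated controls, scored about 3 weeks after treatment (100% = plants died, 0% = like controls). Compounds were applied at 1280 g/ha to the covering soil over sown seeds as aqueous suspension or emulsion containing 0.5% additive.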

Assay [2] has as its system Setaria viridis. Put plainly: Pre-emergence herbicidal action. Particulars: 1280 g/ha, scored visually after about 3 weeks vs untreated controls. An outline of the steps:
as §1

The test system of assay [3] is Polygonum convolvulus. Nature of the assay: Pre-emergence herbicidal action. Particulars: 1280 g/ha, scored visually after about 3 weeks vs untreated controls. The method, boiled down:
as §1

Assay [4] concerns Veronica persica. Put plainly: Pre-emergence herbicidal action. Conditions: 1280 g/ha, scored visually after about 3 weeks vs untreated controls. An outline of the steps: as §1
Assay [5] deals with Amaranthus retroflexus. Nature of the assay: Pre-emergence herbicidal action. Conditions: 1280 g/ha, scored visually after about 3 weeks vs untreated controls. An outline of the steps: as §1
Assay [6] has as its system Matricaria inodora. Nature of the assay: Pre-emergence herbicidal action. Particulars: 1280 g/ha, scored visually after about 3 weeks vs untreated controls. An outline of the steps: as §1
Assay [7] relates to Viola tricolor. Nature of the assay: Pre-emergence herbicidal action. Particulars: 1280 g/ha, scored visually after about 3 weeks vs untreated controls. An outline of the steps: as §1
For assay [8], the system named is Stellaria media. Put plainly: Pre-emergence herbicidal action. Conditions: 1280 g/ha, scored visually after about 3 weeks vs untreated controls. An outline of the steps: as §1
Assay [9] concerns Hordeum murinum. Nature of the assay: Pre-emergence herbicidal action. Particulars: 1280 g/ha, scored visually after about 3 weeks vs untreated controls. The method, boiled down: as §1
Assay [10] deals with Echinochloa crus-galli. Put plainly: Pre-emergence herbicidal action. Conditions: 1280 g/ha, scored visually after about 3 weeks vs untreated controls. An outline of the steps: as §1
Assay [11] has as its system Lolium rigidum. Nature of the assay: Pre-emergence herbicidal action. Particulars: 1280 g/ha, scored visually after about 3 weeks vs untreated controls. The method, boiled down: as §1
Assay [12] deals with Abutilon theophrasti. Nature of the assay: Pre-emergence herbicidal action. Particulars: 1280 g/ha, scored visually after about 3 weeks vs untreated controls. The method, boiled down: as §1
Assay [13] has as its system Alopecurus myosuroides. Put plainly: Pre-emergence herbicidal action. Particulars: 1280 g/ha, scored visually after about 3 weeks vs untreated controls. The method, boiled down: as §1
In assay [14] the test system is Setaria viridis. Nature of the assay: Post-emergence herbicidal action. Particulars: 1280 g/ha, rated visually after about 3 weeks vs untreated controls. An outline of the steps: (§2)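 Visual % activity versus untreated controls (100% = plants died, 0% = like controls), scored about 3 weeks after a foliar spray. Greenhouse plants in sandy loam were treated at one-leaf stage with 1280 g/ha in aqueous spray containing 0.5% additive, 600 l/ha.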

Assay [15] relates to Polygonum convolvulus. Nature of the assay: Post-emergence herbicidal action. Conditions: 1280 g/ha, rated visually after about 3 weeks vs untreated controls. The method, boiled down: as §2
For assay [16], the system named is Amaranthus retroflexus. Nature of the assay: Post-emergence herbicidal action. Particulars: 1280 g/ha, rated visually after about 3 weeks vs untreated controls. An outline of the steps: as §2
For assay [17], the system named is Viola tricolor. Nature of the assay: Post-emergence herbicidal action. Particulars: 1280 g/ha, rated visually after about 3 weeks vs untreated controls. The method, boiled down: as §2
Assay [18] concerns Hordeum murinum. Put plainly: Post-emergence herbicidal action. Particulars: 1280 g/ha, rated visually after about 3 weeks vs untreated controls. An outline of the steps:
as §2

The subject of assay [19] is Echinochloa crus-galli. Put plainly: Post-emergence herbicidal action. Conditions: 1280 g/ha, rated visually after about 3 weeks vs untreated controls. The method, boiled down:
as §2

Assay [20] concerns Abutilon theophrasti. Put plainly: Post-emergence herbicidal action. Conditions: 1280 g/ha, rated visually after about 3 weeks vs untreated controls. An outline of the steps:
as §2

In assay [21] the test system is Alopecurus myosuroides. Nature of the assay: Post-emergence herbicidal action. Particulars: 1280 g/ha, rated visually after about 3 weeks vs untreated controls. The method, boiled down: as §2
The test system of assay [22] is Pharbitis purpurea. Nature of the assay: Post-emergence herbicidal action. Particulars: 1280 g/ha, rated visually after about 3 weeks vs untreated controls. The method, boiled down:
as §2

The test system of assay [23] is Veronica persica. Put plainly: Post-emergence herbicidal action. Conditions: 1280 g/ha, rated visually after about 3 weeks vs untreated controls. The method, boiled down: as §2
Assay [24] has as its system Stellaria media. Nature of the assay: Post-emergence herbicidal action. Particulars: 1280 g/ha, rated visually after about 3 weeks vs untreated controls. The method, boiled down: as §2
In assay [25] the test system is Lolium rigidum. Put plainly: Post-emergence herbicidal action. Particulars: 1280 g/ha, rated visually after about 3 weeks vs untreated controls. The method, boiled down:
as §2

Assay [26] concerns Pharbitis purpurea. Nature of the assay: Pre-emergence herbicidal action. Conditions: 1280 g/ha, scored visually after about 3 weeks vs untreated controls. The method, boiled down: as §1
Assay [27] relates to Avena fatua. Nature of the assay: Post-emergence herbicidal action. Particulars: 1280 g/ha, rated visually after about 3 weeks vs untreated controls. The method, boiled down: as §2
For assay [28], the system named is Matricaria inodora. Put plainly: Post-emergence herbicidal action. Particulars: 1280 g/ha, rated visually after about 3 weeks vs untreated controls. An outline of the steps: as §2

Consider `Cc1c(Sc2cccc(Cl)c2)c(Oc2ncccn2)nn1C` [Example I-069], for which the “herbicidal activity on Avena fatua” value in assay [1] is recorded as 100%. Besides, the “herbicidal activity on Setaria viridis” value in assay [2] turned out to be 100%; in assay [14], 80%. In addition, the “herbicidal activity on Polygonum convolvulus” value in assay [3] and in assay [15] was 100% in each case. Besides, the “herbicidal activity on Veronica persica” value in assay [4] was determined as 100%. In addition, the “herbicidal activity on Amaranthus retroflexus” value in assay [5] and in [16] was 100% each time. Also, the “herbicidal activity on Matricaria inodora” value in [6] came to 100%. Moreover, the “herbicidal activity on Viola tricolor” value in [7] and in [17] was 100% throughout. Further, in [8], the “herbicidal activity on Stellaria media” value is 100%. The results for the “herbicidal activity on Hordeum murinum” value in assay [9] and in assay [18] were 100% and 80%, respectively. The figures for the “herbicidal activity on Echinochloa crus-galli” value in [10] and in assay [19] were 100% and 80%, respectively. In assay [11], the “herbicidal activity on Lolium rigidum” value is listed as 100%. Also, the “herbicidal activity on Abutilon theophrasti” value in assay [12] was 100%; in assay [20], 80%. Also, the “herbicidal activity on Alopecurus myosuroides” value in [13] and in assay [21] was 100% in each case.
`Cc1c(Sc2ccccc2)c(Oc2ncc(F)cn2)nn1C` [Example I-133]: in assay [1], the “herbicidal activity on Avena fatua” value was 100%. Moreover, the “herbicidal activity on Setaria viridis” value in assay [2] and in assay [14] was 100% throughout. The “herbicidal activity on Polygonum convolvulus” value in [3] and in assay [15] was 100% throughout. Further, the “herbicidal activity on Amaranthus retroflexus” value in [5] and in [16] was 100% each time. In assay [6], the “herbicidal activity on Matricaria inodora” value worked out at 100%. For the same compound, the “herbicidal activity on Viola tricolor” value in assay [7] and in assay [17] was 100% in each case. Besides, the “herbicidal activity on Stellaria media” value in [8] and in assay [24] was 100% in each case. Besides, the “herbicidal activity on Hordeum murinum” value in assay [9] was 100%; in assay [18], 90%. In addition, the “herbicidal activity on Echinochloa crus-galli” value in assay [10] and in [19] was 100% in each case. The “herbicidal activity on Lolium rigidum” value in [11] stood at 100%; in assay [25], 90%. The “herbicidal activity on Abutilon theophrasti” value in [12] and in assay [20] was 100% each time. Moreover, the “herbicidal activity on Alopecurus myosuroides” value in assay [13] and in assay [21] was 100% throughout. Moreover, the “herbicidal activity on Pharbitis purpurea” value in assay [22] stood at 100%. In addition, the “herbicidal activity on Veronica persica” value in assay [23] came to 100%.
As to `Cc1c(Sc2ccc(F)c(F)c2)c(Oc2ncccn2)nn1C` [Example I-036], the “herbicidal activity on Avena fatua” value in assay [1] is on record as 90%; in assay [27] it was 100%. For the same compound, the “herbicidal activity on Setaria viridis” value is given as 100% in [2] and 90% in assay [14]. Besides, the “herbicidal activity on Pharbitis purpurea” value in [26] was 80%. Further, the “herbicidal activity on Veronica persica” value in assay [4] is on record as 100%. For the same compound, the “herbicidal activity on Amaranthus retroflexus” value in [5] came out at 90%; in assay [16], 100%. Further, the “herbicidal activity on Matricaria inodora” value in [6] came to 90%. The “herbicidal activity on Viola tricolor” value in [7] and in assay [17] was 100% throughout. Moreover, the “herbicidal activity on Stellaria media” value in assay [8] was 100%; in [24], 90%. Besides, the “herbicidal activity on Hordeum murinum” value in assay [9] is given as 100%. Besides, the figures for the “herbicidal activity on Echinochloa crus-galli” value in [10] and in [19] were 100% and 90%, respectively. For the same compound, the figures for the “herbicidal activity on Lolium rigidum” value in [11] and in assay [25] were 100% and 90%, respectively. In addition, the “herbicidal activity on Abutilon theophrasti” value was found to be 100% in [12] and 90% in [20]. For the same compound, the “herbicidal activity on Alopecurus myosuroides” value in [13] and in assay [21] was 90% each time. In addition, the “herbicidal activity on Polygonum convolvulus” value in [15] was determined as 100%.
For the compound `Cc1c(Sc2ccc(F)cc2Cl)c(Oc2ncc(F)cn2)nn1C` [Example I-065], in assay [2], the “herbicidal activity on Setaria viridis” value was 100%. The “herbicidal activity on Polygonum convolvulus” value in assay [3] and in assay [15] was 100% each time. Also, the “herbicidal activity on Amaranthus retroflexus” value in assay [5] and in assay [16] was 100% each time. Further, the “herbicidal activity on Matricaria inodora” value in assay [6] worked out at 90%; in assay [28], 80%. Moreover, the “herbicidal activity on Viola tricolor” value in [7] and in [17] was 100% in each case. Besides, the “herbicidal activity on Stellaria media” value in assay [8] is reported as 100%; in [24] it was 90%. For the same compound, the “herbicidal activity on Abutilon theophrasti” value in [12] and in [20] was 80% throughout. Moreover, in assay [22], the “herbicidal activity on Pharbitis purpurea” value turned out to be 100%.
With `Cc1c(Sc2ccc(F)cc2)c(Oc2ncc(Cl)cn2)nn1C` [Example I-060], the “herbicidal activity on Setaria viridis” value in [2] stood at 90%; in [14], 80%. Moreover, the “herbicidal activity on Polygonum convolvulus” value in assay [3] is on record as 100%; in [15], 80%. The “herbicidal activity on Veronica persica” value in assay [4] is 100%; in [23] it was 90%. The “herbicidal activity on Amaranthus retroflexus” value in assay [5] and in assay [16] was 100% each time. Besides, the “herbicidal activity on Viola tricolor” value in assay [7] and in assay [17] was 100% throughout. Moreover, the entries for the “herbicidal activity on Echinochloa crus-galli” value in assay [10] and in [19] were 80% and 90%, respectively. Also, the “herbicidal activity on Abutilon theophrasti” value in [12] and in assay [20] was 80% in each case. In [28], the “herbicidal activity on Matricaria inodora” value is 80%. Also, in assay [24], the “herbicidal activity on Stellaria media” value is on record as 100%. For the same compound, the “herbicidal activity on Alopecurus myosuroides” value in [21] was 90%.
Regarding `Cc1c(Sc2ccc(F)c(F)c2)c(Oc2ncc(F)cn2)nn1C` [Example I-093], the “herbicidal activity on Avena fatua” value in assay [1] and in assay [27] was 100% in each case. Also, the “herbicidal activity on Setaria viridis” value in [2] and in assay [14] was 100% throughout. Moreover, the figures for the “herbicidal activity on Pharbitis purpurea” value in [26] and in [22] were 80% and 90%, respectively. In addition, the “herbicidal activity on Polygonum convolvulus” value in [3] and in assay [15] was 100% throughout. Moreover, the “herbicidal activity on Veronica persica” value in assay [4] amounted to 100%. The “herbicidal activity on Amaranthus retroflexus” value in [5] and in assay [16] was 100% each time. Also, the “herbicidal activity on Matricaria inodora” value in [6] is 100%. Besides, the “herbicidal activity on Viola tricolor” value in [7] and in [17] was 100% each time. For the same compound, the “herbicidal activity on Stellaria media” value in assay [8] and in assay [24] was 100% in each case. Besides, the “herbicidal activity on Hordeum murinum” value in assay [9] came to 100%; in [18], 90%. In addition, the “herbicidal activity on Echinochloa crus-galli” value in assay [10] and in assay [19] was 100% each time. Moreover, the “herbicidal activity on Lolium rigidum” value in [11] and in [25] was 100% throughout. Besides, the “herbicidal activity on Abutilon theophrasti” value in assay [12] amounted to 100%; in [20], 90%. Further, the “herbicidal activity on Alopecurus myosuroides” value in assay [13] and in assay [21] was 100% in each case.
